{
  "source": "patent US11596639B2",
  "about": "“Substituted indole Mcl-1 inhibitors” (Vanderbilt University, priority 2016, dated 2023)",
  "key": {"[1]": {"tested_on": "H929 human cancer cell lines", "assay": "Cellular viability / proliferation (Cell TiterGlo, 72 h)", "format": "cell-based", "details": "Homo sapiens, NCI-H929, 72 h, read-out: GI50 on cellular proliferation of H929 human cancer cell lines, H929 cells, 72 h, Cell TiterGlo, 10% FBS", "method_in_brief": "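1,000 cells/well, 10% FBS medium; compound added at 24 h, 2-fold dilutions from 50 μM top, DMSO <1% final. 72 h exposure, CellTiterGlo 30 min RT dark, luminescence read. IC50 by 4-parameter fit.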"}, "Mcl-1": {"target": "Mcl-1 (Homo sapiens (Human), UniProt Q07820)", "sequence (Q07820 172-327)": "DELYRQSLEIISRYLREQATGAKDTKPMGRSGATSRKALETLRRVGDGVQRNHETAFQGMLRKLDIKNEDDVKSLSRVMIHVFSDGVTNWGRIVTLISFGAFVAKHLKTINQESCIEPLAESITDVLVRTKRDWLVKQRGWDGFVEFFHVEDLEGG", "assay": "TR-FRET binding assay, FITC-Bak peptide and MBP-tagged Mcl-1", "details": "read-out: Ki for Inhibition of Mcl-1 by TR-FRET assay", "method": "Compounds are diluted in DMSO in a 16-point, semilog serial dilution scheme. […] The plate was mixed and incubated for 3 hours at room temperature. […] TR-FRET signal is plotted and IC50 and Ki values are calculated in the same manner as the fluorescence polarization anisotropy based competition assays."}},
  "data": [
    {"compound": "Cc1cc(OCCCc2c3n(c4c(-c5c(C)nn(C)c5C)c(Cl)ccc24)[C@H](C)CN(c2c(C)ccc4cc(C(=O)O)n(C)c24)C3=O)cc(C)c1Cl", "note": "[Example 726, (R)-7-(7-Chloro-10-(3-(4-chloro-3,5-dimethylphenoxy)propyl)-4-methyl-1-oxo-6-(1,3,5-trimethyl-1H-pyrazol-4-yl)-3,4-dihydropyrazino[1,2-a]indol-2(1H)-yl)-1,6-dimethyl-1H-indole-2-carboxylic acid]", "values": [
      {"measurement": "GI50", "setting": "[1]", "result": 260, "unit": "nM"},
      {"measurement": "Ki", "setting": "Mcl-1", "result": "< 0.2", "unit": "nM"}
    ]},
    {"compound": "COCCOc1cc(N2C[C@@H](C)n3c(c(CCCOc4cc(C)c(Cl)c(C)c4)c4ccc(Cl)c(-c5c(C)nn(C)c5C)c43)C2=O)c2c(c1)c(C(=O)O)cn2CCOC", "note": "[Example 656, (R)-7-(7-chloro-10-(3-(4-chloro-3,5-dimethylphenoxy)propyl)-4-methyl-1-oxo-6-(1,3,5-trimethyl-1H-pyrazol-4-yl)-3,4-dihydropyrazino[1,2-a]indol-2(1H)-yl)-5-(2-methoxyethoxy)-1-(2-methoxyethyl)-1H-indole-3-carboxylic acid]", "values": [
      {"measurement": "GI50", "setting": "[1]", "result": 250, "unit": "nM"},
      {"measurement": "Ki", "setting": "Mcl-1", "result": "< 0.2", "unit": "nM"}
    ]},
    {"compound": "Cc1ccnc(-n2cnc(-c3ccc4c(c3)c(N3C[C@@H](C)n5c(c(CCCOc6cc(C)c(Cl)c(C)c6)c6ccc(Cl)c(-c7c(C)nn(C)c7C)c65)C3=O)cn4C)n2)n1", "note": "[Example 670, (R)-7-Chloro-10-(3-(4-chloro-3,5-dimethylphenoxy)propyl)-4-methyl-2-(1-methyl-5-(1-(4-methylpyrimidin-2-yl)-1H-1,2,4-triazol-3-yl)-1H-indol-3-yl)-6-(1,3,5-trimethyl-1H-pyrazol-4-yl)-3,4-dihydropyrazino[1,2-a]indol-1(2H)-one]", "values": [
      {"measurement": "GI50", "setting": "[1]", "result": "< 200", "unit": "nM"},
      {"measurement": "Ki", "setting": "Mcl-1", "result": "< 0.2", "unit": "nM"}
    ]},
    {"compound": "Cc1cc(OCCCc2c3n(c4c(-c5c(C)nn(C)c5C)c(Cl)ccc24)[C@H](C)CN(c2cc(CN4CCN(C)CC4)cc4c(C(=O)O)cn(C)c24)C3=O)cc(C)c1Cl", "note": "[Example 490, (R)-7-(7-Chloro-10-(3-(4-chloro-3,5-dimethylphenoxy)propyl)-4-methyl-1-oxo-6-(1,3,5-trimethyl-1H-pyrazol-4-yl)-3,4-dihydropyrazino[1,2-a]indol-2(1H)-yl)-1-methyl-5-((4-methylpiperazin-1-yl)methyl)-1H-indole-3-carboxylic acid]", "values": [
      {"measurement": "GI50", "setting": "[1]", "result": 810, "unit": "nM"},
      {"measurement": "Ki", "setting": "Mcl-1", "result": 0.29, "unit": "nM"}
    ]},
    {"compound": "Cc1cc(OCCCc2c3n(c4c(-c5c(C)nn(C)c5C)c(Cl)ccc24)[C@H](C)CN(c2cc(OCC4CC4)cc4cc(C(=O)O)n(C)c24)C3=O)cc(C)c1Cl", "note": "[Example 485, (R)-7-(7-Chloro-10-(3-(4-chloro-3,5-dimethylphenoxy)propyl)-4-methyl-1-oxo-6-(1,3,5-trimethyl-1H-pyrazol-4-yl)-3,4-dihydropyrazino[1,2-a]indol-2(1H)-yl)-5-(cyclopropylmethoxy)-1-methyl-1H-indole-2-carboxylic acid]", "values": [
      {"measurement": "GI50", "setting": "[1]", "result": 410, "unit": "nM"},
      {"measurement": "Ki", "setting": "Mcl-1", "result": 0.35, "unit": "nM"}
    ]},
    {"compound": "COc1cc(N2C[C@@H](C)n3c(c(CCCOc4cc(C)c(Cl)c(C)c4)c4ccc(Cl)c(-c5c(C)nn(C)c5C)c43)C2=O)c2c(c1)cc(C(=O)O)n2Cc1ccccn1", "note": "[Example 538, (R)-7-(7-Chloro-10-(3-(4-chloro-3,5-dimethylphenoxy)propyl)-4-methyl-1-oxo-6-(1,3,5-trimethyl-1H-pyrazol-4-yl)-3,4-dihydropyrazino[1,2-a]indol-2(1H)-yl)-5-methoxy-1-(pyridin-2-ylmethyl)-1H-indole-2-carboxylic acid]", "values": [
      {"measurement": "GI50", "setting": "[1]", "result": "< 200", "unit": "nM"},
      {"measurement": "Ki", "setting": "Mcl-1", "result": "< 0.2", "unit": "nM"}
    ]},
    {"compound": "Cc1cc(OCCCc2c3n(c4c(-c5c(C)nn(C)c5C)c(Cl)ccc24)[C@H](C)CN(c2cc(NC(=O)CCN(C)C)cc4c(C(=O)O)cn(C)c24)C3=O)cc(C)c1Cl", "note": "[Example 541, (R)-7-(7-Chloro-10-(3-(4-chloro-3,5-dimethylphenoxy)propyl)-4-methyl-1-oxo-6-(1,3,5-trimethyl-1H-pyrazol-4-yl)-3,4-dihydropyrazino[1,2-a]indol-2(1H)-yl)-5-(3-(dimethylamino)propanamido)-1-methyl-1H-indole-3-carboxylic acid]", "values": [
      {"measurement": "GI50", "setting": "[1]", "result": 1700, "unit": "nM"},
      {"measurement": "Ki", "setting": "Mcl-1", "result": 0.53, "unit": "nM"}
    ]},
    {"compound": "COc1ccc(N2C[C@@H](C)n3c(c(CCCOc4cc(C)c(Cl)c(C)c4)c4ccc(Cl)c(-c5c(C)ncnc5C)c43)C2=O)c2c1cc(C(=O)O)n2Cc1cccc(C)n1", "note": "[Example 477, (R)-7-(7-Chloro-10-(3-(4-chloro-3,5-dimethylphenoxy)propyl)-6-(4,6-dimethylpyrimidin-5-yl)-4-methyl-1-oxo-3,4-dihydropyrazino[1,2-a]indol-2(1H)-yl)-4-methoxy-1-((6-methylpyridin-2-yl)methyl)-1H-indole-2-carboxylic acid]", "values": [
      {"measurement": "GI50", "setting": "[1]", "result": "< 200", "unit": "nM"},
      {"measurement": "Ki", "setting": "Mcl-1", "result": "< 0.2", "unit": "nM"}
    ]},
    {"compound": "Cc1cc(OCCCc2c3n(c4c(-c5c(C)nn(C)c5C)c(Cl)ccc24)[C@H](C)CN(c2cc(COCCN4CCOCC4)cc4cc(C(=O)O)n(C)c24)C3=O)cc(C)c1Cl", "note": "[Example 693, (R)-7-(7-chloro-10-(3-(4-chloro-3,5-dimethylphenoxy)propyl)-4-methyl-1-oxo-6-(1,3,5-trimethyl-1H-pyrazol-4-yl)-3,4-dihydropyrazino[1,2-a]indol-2(1H)-yl)-1-methyl-5-((2-morpholinoethoxy)methyl)-1H-indole-2-carboxylic acid]", "values": [
      {"measurement": "GI50", "setting": "[1]", "result": 210, "unit": "nM"},
      {"measurement": "Ki", "setting": "Mcl-1", "result": "< 0.2", "unit": "nM"}
    ]},
    {"compound": "COCCn1c(C(=O)O)cc2cc(OC)cc(N3C[C@@H](C)n4c(c(CCCOc5cc(C)c(Cl)c(C)c5)c5ccc(Cl)c(-c6c(C)nn(C)c6C)c54)C3=O)c21", "note": "[Example 665, (R)-7-(7-chloro-10-(3-(4-chloro-3,5-dimethylphenoxy)propyl)-4-methyl-1-oxo-6-(1,3,5-trimethyl-1H-pyrazol-4-yl)-3,4-dihydropyrazino[1,2-a]indol-2(1H)-yl)-5-methoxy-1-(2-methoxyethyl)-1H-indole-2-carboxylic acid]", "values": [
      {"measurement": "GI50", "setting": "[1]", "result": 280, "unit": "nM"},
      {"measurement": "Ki", "setting": "Mcl-1", "result": "< 0.2", "unit": "nM"}
    ]},
    {"compound": "Cc1cc(OCCCc2c3n(c4c(-c5c(C)nn(C)c5C)c(Cl)ccc24)[C@H](C)CN(c2cc(N(C)C(=O)[C@H](C)N(C)C)cc4c(C(=O)O)cn(C)c24)C3=O)cc(C)c1Cl", "note": "[Example 608, 7-((R)-7-chloro-10-(3-(4-chloro-3,5-dimethylphenoxy)propyl)-4-methyl-1-oxo-6-(1,3,5-trimethyl-1H-pyrazol-4-yl)-3,4-dihydropyrazino[1,2-a]indol-2(1H)-yl)-5-((S)-2-(dimethylamino)-N-methylpropanamido)-1-methyl-1H-indole-3-carboxylic acid]", "values": [
      {"measurement": "GI50", "setting": "[1]", "result": 304000, "unit": "nM"},
      {"measurement": "Ki", "setting": "Mcl-1", "result": 0.91, "unit": "nM"}
    ]},
    {"compound": "Cc1cc(OCCCc2c3n(c4c(-c5c(C)nn(C)c5C)c(Cl)ccc24)[C@H](C)CN(c2cn(CCN4CCCCC4)c4ccc(C(=O)O)cc24)C3=O)cc(C)c1Cl", "note": "[Example 543, (R)-3-(7-Chloro-10-(3-(4-chloro-3,5-dimethylphenoxy)propyl)-4-methyl-1-oxo-6-(1,3,5-trimethyl-1H-pyrazol-4-yl)-3,4-dihydropyrazino[1,2-a]indol-2(1H)-yl)-1-(2-(piperidin-1-yl)ethyl)-1H-indole-5-carboxylic acid]", "values": [
      {"measurement": "GI50", "setting": "[1]", "result": 1800, "unit": "nM"},
      {"measurement": "Ki", "setting": "Mcl-1", "result": 2.9, "unit": "nM"}
    ]},
    {"compound": "COCCOc1cc(N2C[C@@H](C)n3c(c(CCCOc4cc(C)c(Cl)c(C)c4)c4ccc(Cl)c(-c5c(C)ncnc5C)c43)C2=O)c2c(c1)cc(C(=O)O)n2Cc1cc(C)ccn1", "note": "[Example 573, (R)-7-(7-chloro-10-(3-(4-chloro-3,5-dimethylphenoxy)propyl)-6-(4,6-dimethylpyrimidin-5-yl)-4-methyl-1-oxo-3,4-dihydropyrazino[1,2-a]indol-2(1H)-yl)-5-(2-methoxyethoxy)-1-((4-methylpyridin-2-yl)methyl)-1H-indole-2-carboxylic acid]", "values": [
      {"measurement": "GI50", "setting": "[1]", "result": "< 200", "unit": "nM"},
      {"measurement": "Ki", "setting": "Mcl-1", "result": "< 0.2", "unit": "nM"}
    ]},
    {"compound": "Cc1cc(OCCCc2c3n(c4c(-c5c(C)nn(C)c5C)c(Cl)ccc24)[C@H](C)CN(c2cc(CCN4CCCCC4)cc4cc(C(=O)O)n(C)c24)C3=O)cc(C)c1Cl", "note": "[Example 723, (R)-7-(7-chloro-10-(3-(4-chloro-3,5-dimethylphenoxy)propyl)-4-methyl-1-oxo-6-(1,3,5-trimethyl-1H-pyrazol-4-yl)-3,4-dihydropyrazino[1,2-a]indol-2(1H)-yl)-1-methyl-5-(2-(piperidin-1-yl)ethyl)-1H-indole-2-carboxylic acid]", "values": [
      {"measurement": "GI50", "setting": "[1]", "result": "< 200", "unit": "nM"},
      {"measurement": "Ki", "setting": "Mcl-1", "result": "< 0.2", "unit": "nM"}
    ]},
    {"compound": "Cc1cc(OCCCc2c3n(c4c(-c5c(C)ncnc5C)c(Cl)ccc24)[C@H](C)CN(c2cn(C)c4ncc(C(=O)O)nc24)C3=O)cc(C)c1Cl", "note": "[Example 644, (R)-7-(7-chloro-10(3-(4-chloro-3,5-dimethylphenoxy)propyl)-6-(4,6-dimethylpyrimidin-5-yl)-4-methyl-1-oxo-3,4-dihydropyrazino[1,2-a]indol-2(1H)-yl)-5-methyl-5H-pyrrolo[2,3-b]pyrazine-2-carboxylic acid]", "values": [
      {"measurement": "GI50", "setting": "[1]", "result": 1900, "unit": "nM"},
      {"measurement": "Ki", "setting": "Mcl-1", "result": "< 0.2", "unit": "nM"}
    ]},
    {"compound": "Cc1cc(OCCCc2c3n(c4c(-c5c(C)nn(C)c5C)c(Cl)ccc24)[C@H](C)CN(c2cc(N(C)C)cc4cc(C(=O)O)n(C)c24)C3=O)cc(C)c1Cl", "note": "[Example 683, (R)-7-(7-chloro-10-(3-(4-chloro-3,5-dimethylphenoxy)propyl)-4-methyl-1-oxo-6-(1,3,5-trimethyl-1H-pyrazol-4-yl)-3,4-dihydropyrazino[1,2-a]indol-2(1H)-yl)-5-(dimethylamino)-1-methyl-1H-indole-2-carboxylic acid]", "values": [
      {"measurement": "GI50", "setting": "[1]", "result": 250, "unit": "nM"},
      {"measurement": "Ki", "setting": "Mcl-1", "result": 0.21, "unit": "nM"}
    ]},
    {"compound": "COCCn1cc(N2C[C@@H](C)n3c(c(CCCOc4cc(C)c(Cl)c(C)c4)c4ccc(Cl)c(-c5c(C)nn(C)c5C)c43)C2=O)c2cc(-c3ncccn3)ccc21", "note": "[Example 548, (R)-7-Chloro-10-(3-(4-chloro-3,5-dimethylphenoxy)propyl)-2-(1-(2-methoxyethyl)-5-(pyrimidin-2-yl)-1H-indol-3-yl)-4-methyl-6-(1,3,5-trimethyl-1H-pyrazol-4-yl)-3,4-dihydropyrazino[1,2-a]indol-1(2H)-one]", "values": [
      {"measurement": "GI50", "setting": "[1]", "result": 610, "unit": "nM"},
      {"measurement": "Ki", "setting": "Mcl-1", "result": 0.94, "unit": "nM"}
    ]}
  ]
}
